Assay results reported in EP0908457B1, “3-(1,2-benzisothiazol- and isoxazol-5-Y1)-2,4(1H,3H)-pyrimidinedione or thione and 3-(1,2-benzisothiazol- and isoxazol-5-y1)-4(3H)-pyrimidinone or thione herbicidal agents” (BASF AKTIENGESELLSCHAFT, priority 1997, dated 1999).
Read-outs that look alike come from different tables or passages of the source. Each block holds one molecule with its values, some of them ahead of it.

Legend:
[1] = system: Echinochloa oryzoides (Ard.) Fritsch.; experiment: Preemergence weed control under flooded paddy conditions, ECHORC (Watergrass (Calif.)); type: in vivo; conditions: flooded paddy; for ECHORC: herbicidal effect rating 0-9, three to four weeks after treatment; for herbicidal effect rating, ECHORC: meaning of each grade not given here
[2] = system: Cyperus iria; experiment: Preemergence weed control under flooded paddy conditions, CYPIR (Rice Flatsedge); type: in vivo; conditions: flooded paddy; for CYPIR: herbicidal effect rating 0-9, three to four weeks after treatment; for herbicidal effect rating, CYPIR: meaning of each grade not given here
[3] = system: Cyperus serotinus, Rottb.; experiment: Preemergence weed control under flooded paddy conditions, CYPSE (Flatsedge); type: in vivo; conditions: for CYPSE: herbicidal effect rating 0-9, three to four weeks after treatment; for herbicidal effect rating, CYPSE: meaning of each grade not given here
[4] = system: Monochoria vaginalis, Presl.; experiment: Preemergence weed control under flooded paddy conditions, MOOVA (Monochoria); type: in vivo; conditions: flooded paddy; for MOOVA: herbicidal effect rating 0-9, three to four weeks after treatment; for herbicidal effect rating, MOOVA: meaning of each grade not given here
[5] = system: Sagittaria pygmaea, L.; experiment: Preemergence weed control under flooded paddy conditions, SAGPY (Arrowhead (Pygmaea)); type: in vivo; conditions: flooded paddy; for SAGPY: herbicidal effect rating 0-9, three to four weeks after treatment; for herbicidal effect rating, SAGPY: meaning of each grade not given here
[6] = system: Oryza sativa, (L.) Tebonnet; conditions: in vivo
[7] = system: Echinochloa oryzoides (Ard.) Fritsch.; experiment: Postemergence weed control under flooded paddy conditions, ECHORC (Watergrass (Calif.)); type: in vivo; conditions: rated three to four weeks after treatment
[8] = system: Cyperus iria; experiment: Postemergence weed control under flooded paddy conditions, CYPIR (Rice Flatsedge); type: in vivo; conditions: rated three to four weeks after treatment
[9] = system: Cyperus serotinus, Rottb.; experiment: Postemergence weed control under flooded paddy conditions, CYPSE (Flatsedge); type: in vivo; conditions: rated three to four weeks after treatment
[10] = system: Monochoria vaginalis, Presl.; experiment: Postemergence weed control under flooded paddy conditions, MOOVA (Monochoria); type: in vivo; conditions: rated three to four weeks after treatment
[11] = system: Sagittaria pygmaea, L.; experiment: Postemergence weed control under flooded paddy conditions, SAGPY (Arrowhead (Pygmaea)); type: in vivo; conditions: rated three to four weeks after treatment
[12] = system: Oryza sativa, (L.) Tebonnet; experiment: Rice tolerance to post-transplant applications under flooded paddy conditions (Example 187), ORYSAT (Rice, Tebonnet); conditions: rated three to four weeks after treatment; for herbicidal effect rating ORYSAT: meaning of each grade not given here
[13] = system: Oryza sativa, (L.) Tebonnet; experiment: Rice tolerance to post-transplant applications under flooded paddy conditions (Example 188), ORYSAT (Rice, Tebonnet); conditions: rated three to four weeks after treatment
[14] = Rate 0.2500 kg/ha, preemergence weeds, rated three to four weeks after treatment
[15] = 0.0313 kg/ha, preemergence, rated three to four weeks after treatment
[16] = 0.0625 kg/ha, preemergence, rated three to four weeks after treatment
[17] = 0.1250 kg/ha, preemergence, rated three to four weeks after treatment
[18] = 0.2500 kg/ha, preemergence, rated three to four weeks after treatment
[19] = Rate 0.0320 kg/ha, preemergence, rated three to four weeks after treatment
[20] = Rate 0.0620 kg/ha, preemergence, rated three to four weeks after treatment
[21] = Rate 0.1250 kg/ha, preemergence, rated three to four weeks after treatment
[22] = Rate 0.2500 kg/ha, preemergence, rated three to four weeks after treatment
[23] = Rate 0.0320 kg/ha, preemergence, rated 3-4 weeks after treatment
[24] = Rate 0.0620 kg/ha, preemergence, rated 3-4 weeks after treatment
[25] = Rate 0.1250 kg/ha, preemergence, rated 3-4 weeks after treatment
[26] = Rate 0.2500 kg/ha, preemergence, rated 3-4 weeks after treatment
[27] = Rate 0.5000 kg/ha, preemergence, rated 3-4 weeks after treatment
[28] = 0.0320 kg/ha, preemergence weeds
[29] = 0.0620 kg/ha, preemergence weeds
[30] = 0.1250 kg/ha, preemergence weeds
[31] = 0.2500 kg/ha, preemergence weeds
[32] = Rate 0.0320 kg/ha, preemergence weeds, rated three to four weeks after treatment
[33] = Rate 0.0620 kg/ha, preemergence weeds, rated three to four weeks after treatment
[34] = Rate 0.1250 kg/ha, preemergence weeds, rated three to four weeks after treatment

Molecule: Cn1c(C(F)(F)F)cc(=O)n(-c2ccc3snc(CNS(C)(=O)=O)c3c2)c1=O [Example 305]
herbicidal effect rating, ECHORC [1, 14]: 0.0
herbicidal effect rating, CYPIR [2, 14]: 0.0
herbicidal effect rating, CYPSE [3, 14]: 0.0
herbicidal effect rating, MOOVA [4, 14]: 0.0
herbicidal effect rating, SAGPY [5, 14]: 0.0
herbicidal effect rating ORYSAT [6]: 0.0

Molecule: 1-Methyl-3-(2-methyl-3-oxo-1,2-benzisoxazolin-5-yl)-6-(trifluoromethyl)-2,4(1H,3H)-pyrimidinedione [Example 44]
herbicidal effect rating, ECHORC [1, 15]: 0.0
herbicidal effect rating, ECHORC [1, 16]: 0.0
herbicidal effect rating, ECHORC [1, 17]: 0.0
herbicidal effect rating, ECHORC [1, 18]: 0.0
herbicidal effect rating, CYPIR [2, 15]: 0.0
herbicidal effect rating, CYPIR [2, 16]: 0.0
herbicidal effect rating, CYPIR [2, 17]: 0.0
herbicidal effect rating, CYPIR [2, 18]: 0.0
herbicidal effect rating, CYPSE [3, 15]: 0.0
herbicidal effect rating, CYPSE [3, 16]: 0.0
herbicidal effect rating, CYPSE [3, 17]: 0.0
herbicidal effect rating, CYPSE [3, 18]: 0.0
herbicidal effect rating, MOOVA [4, 15]: 0.0
herbicidal effect rating, MOOVA [4, 16]: 0.0
herbicidal effect rating, MOOVA [4, 17]: 0.0
herbicidal effect rating, MOOVA [4, 18]: 0.0
herbicidal effect rating, SAGPY [5, 15]: 0.0
herbicidal effect rating, SAGPY [5, 16]: 0.0
herbicidal effect rating, SAGPY [5, 17]: 0.0
herbicidal effect rating, SAGPY [5, 18]: 0.0
herbicidal effect rating, ORYSAT (rice tolerance) [6]: 0.0

Molecule: Cn1c(C(F)(F)F)cc(=O)n(-c2ccc3snc(CC=NO)c3c2)c1=O [Example 266, 1,2-Benzisothiazole-3-acetaldehyde, 5-[3,6-dihydro-3-methyl-2,6-dioxo-4-(trifluoromethyl)-1(2H)-pyrimidinyl]-, 3-oxime, (E)- and (Z)-]
ECHORC herbicidal effect rating [1, 19]: 0.0
ECHORC herbicidal effect rating [1, 20]: 0.0
ECHORC herbicidal effect rating [1, 21]: 0.0
ECHORC herbicidal effect rating [1, 22]: 0.0
CYPIR herbicidal effect rating [2, 19]: 5.0
CYPIR herbicidal effect rating [2, 20]: 5.0
CYPIR herbicidal effect rating [2, 21]: 5.0
CYPIR herbicidal effect rating [2, 22]: 9.0
CYPSE herbicidal effect rating [3, 19]: 0.0
CYPSE herbicidal effect rating [3, 20]: 0.0
CYPSE herbicidal effect rating [3, 21]: 0.0
CYPSE herbicidal effect rating [3, 22]: 3.0
MOOVA herbicidal effect rating [4, 19]: 9.0
MOOVA herbicidal effect rating [4, 20]: 9.0
MOOVA herbicidal effect rating [4, 21]: 9.0
MOOVA herbicidal effect rating [4, 22]: 9.0
SAGPY herbicidal effect rating [5, 19]: 0.0
SAGPY herbicidal effect rating [5, 20]: 0.0
SAGPY herbicidal effect rating [5, 21]: 0.0
SAGPY herbicidal effect rating [5, 22]: 0.0
ORYSAT herbicidal effect rating [6]: 0.0

Molecule: Cc1ccc(OCC(=O)c2ccccc2)c(-c2nsc3ccc(-n4c(=O)cc(C(F)(F)F)n(C)c4=O)cc23)c1 [Example 537, 2,4(1H,3H)-Pyrimidinedione, 1-methyl-3-{3-[6-(phenacyloxy)-m-tolyl]-1,2-benzisothiazol-5-yl}-6-(trifluoromethyl)-]
herbicidal effect rating, ECHORC [1, 23]: 3.4
herbicidal effect rating, ECHORC [1, 24]: 4.4
herbicidal effect rating, ECHORC [1, 25]: 5.0
herbicidal effect rating, ECHORC [1, 26]: 9.0
herbicidal effect rating, ECHORC [1, 27]: 9.0
herbicidal effect rating, CYPIR [2, 23]: 0.0
herbicidal effect rating, CYPIR [2, 24]: 0.0
herbicidal effect rating, CYPIR [2, 25]: 1.0
herbicidal effect rating, CYPIR [2, 26]: 4.0
herbicidal effect rating, CYPIR [2, 27]: 9.0
herbicidal effect rating, CYPSE [3, 23]: 0.0
herbicidal effect rating, CYPSE [3, 24]: 0.0
herbicidal effect rating, CYPSE [3, 25]: 0.0
herbicidal effect rating, CYPSE [3, 26]: 0.0
herbicidal effect rating, CYPSE [3, 27]: 0.0
herbicidal effect rating, MOOVA [4, 23]: 9.0
herbicidal effect rating, MOOVA [4, 24]: 9.0
herbicidal effect rating, MOOVA [4, 25]: 9.0
herbicidal effect rating, MOOVA [4, 26]: 9.0
herbicidal effect rating, MOOVA [4, 27]: 9.0
herbicidal effect rating, SAGPY [5, 23]: 0.0
herbicidal effect rating, SAGPY [5, 24]: 0.0
herbicidal effect rating, SAGPY [5, 25]: 0.0
herbicidal effect rating, SAGPY [5, 26]: 0.0
herbicidal effect rating, SAGPY [5, 27]: 0.0
herbicidal effect rating ORYSAT [6]: 0.0

ORYSAT [6]: 9.0
Molecule: COC(OC)c1nsc2ccc(-n3c(=O)cc(C(F)(F)F)n(C)c3=O)cc12 [Example 453, 1,2-Benzisothiazole-3-carboxaldehyde, 5-[3,6-dihydro-3-methyl-2,6-dioxo-4-(trifluoromethyl)-1(2H)-pyrimidinyl]-, 3-(dimethylacetal)]
ECHORC [1, 28]: 9.0
ECHORC [1, 29]: 9.0
ECHORC [1, 30]: 9.0
ECHORC [1, 31]: 9.0
CYPIR [2, 28]: 9.0
CYPIR [2, 29]: 9.0
CYPIR [2, 30]: 9.0
CYPIR [2, 31]: 9.0
CYPSE [3, 28]: 9.0
CYPSE [3, 29]: 9.0
CYPSE [3, 30]: 9.0
CYPSE [3, 31]: 9.0
MOOVA [4, 28]: 9.0
MOOVA [4, 29]: 9.0
MOOVA [4, 30]: 9.0
MOOVA [4, 31]: 9.0
SAGPY [5, 28]: 9.0
SAGPY [5, 29]: 9.0
SAGPY [5, 30]: 9.0
SAGPY [5, 31]: 9.0

Molecule: CC(C)Oc1cccc(-c2nsc3ccc(-n4c(=O)cc(C(F)(F)F)n(C)c4=O)cc23)c1 [Example 328, 2,4(1H,3H)-Pyrimidinedione, 3-[3-(m-isopropoxyphenyl)-1,2-benzisothiazol-5-yl]-1-methyl-6-(trifluoromethyl)-]
herbicidal effect rating, ECHORC [1, 32]: 9.0
herbicidal effect rating, ECHORC [1, 33]: 9.0
herbicidal effect rating, ECHORC [1, 34]: 9.0
herbicidal effect rating, ECHORC [1, 14]: 9.0
herbicidal effect rating, CYPIR [2, 32]: 9.0
herbicidal effect rating, CYPIR [2, 33]: 9.0
herbicidal effect rating, CYPIR [2, 34]: 9.0
herbicidal effect rating, CYPIR [2, 14]: 9.0
herbicidal effect rating, CYPSE [3, 32]: 6.0
herbicidal effect rating, CYPSE [3, 33]: 6.0
herbicidal effect rating, CYPSE [3, 34]: 7.5
herbicidal effect rating, CYPSE [3, 14]: 9.0
herbicidal effect rating, MOOVA [4, 32]: 9.0
herbicidal effect rating, MOOVA [4, 33]: 9.0
herbicidal effect rating, MOOVA [4, 34]: 9.0
herbicidal effect rating, MOOVA [4, 14]: 9.0
herbicidal effect rating, SAGPY [5, 32]: 2.5
herbicidal effect rating, SAGPY [5, 33]: 3.0
herbicidal effect rating, SAGPY [5, 34]: 4.5
herbicidal effect rating, SAGPY [5, 14]: 4.5
herbicidal effect rating, ECHORC ([7]; Rate 0.0320 kg/ha): 7.0
herbicidal effect rating, ECHORC ([7]; Rate 0.0620 kg/ha): 9.0
herbicidal effect rating, ECHORC ([7]; Rate 0.1250 kg/ha): 9.0
herbicidal effect rating, ECHORC ([7]; Rate 0.2500 kg/ha): 9.0
herbicidal effect rating, CYPIR ([8]; Rate 0.0320 kg/ha): 9.0
herbicidal effect rating, CYPIR ([8]; Rate 0.0620 kg/ha): 9.0
herbicidal effect rating, CYPIR ([8]; Rate 0.1250 kg/ha): 9.0
herbicidal effect rating, CYPIR ([8]; Rate 0.2500 kg/ha): 9.0
herbicidal effect rating, CYPSE ([9]; Rate 0.0320 kg/ha): 0.0
herbicidal effect rating, CYPSE ([9]; Rate 0.0620 kg/ha): 2.0
herbicidal effect rating, CYPSE ([9]; Rate 0.1250 kg/ha): 6.0
herbicidal effect rating, CYPSE ([9]; Rate 0.2500 kg/ha): 6.0
herbicidal effect rating, MOOVA ([10]; Rate 0.0320 kg/ha): 9.0
herbicidal effect rating, MOOVA ([10]; Rate 0.0620 kg/ha): 9.0
herbicidal effect rating, MOOVA ([10]; Rate 0.1250 kg/ha): 9.0
herbicidal effect rating, MOOVA ([10]; Rate 0.2500 kg/ha): 9.0
herbicidal effect rating, SAGPY ([11]; Rate 0.0320 kg/ha): 0.0
herbicidal effect rating, SAGPY ([11]; Rate 0.0620 kg/ha): 0.0
herbicidal effect rating, SAGPY ([11]; Rate 0.1250 kg/ha): 2.0
herbicidal effect rating, SAGPY ([11]; Rate 0.2500 kg/ha): 6.0
herbicidal effect rating ORYSAT ([12]; Rate 0.0320 kg/ha): 2.0
herbicidal effect rating ORYSAT ([12]; Rate 0.0620 kg/ha): 3.0
herbicidal effect rating ORYSAT ([12]; Rate 0.1250 kg/ha): 4.0
herbicidal effect rating ORYSAT ([12]; Rate 0.2500 kg/ha): 4.5
herbicidal effect rating, ORYSAT (rice tolerance) ([13]; Rate 0.0320 kg/ha): 2.0
herbicidal effect rating, ORYSAT (rice tolerance) ([13]; Rate 0.0620 kg/ha): 4.0
herbicidal effect rating, ORYSAT (rice tolerance) ([13]; Rate 0.1250 kg/ha): 4.0
herbicidal effect rating, ORYSAT (rice tolerance) ([13]; Rate 0.2500 kg/ha): 4.0
